{"source": "paper PMC8414802", "about": "“Hair Cell Generation in Cochlear Culture Models Mediated by Novel γ-Secretase Inhibitors” (Frontiers in Cell and Developmental Biology, 2021)", "tested_on": "Atoh1-GFP positive hair cells and Sox2+ supporting cells in whole cochlea", "assay": "Ex vivo whole cochlea culture, drug applied at the round window niche", "format": "cell-based, mouse", "protocol": "To culture the intact cochlea of P0–P1 mice, the entire otic capsule (cochlea and semicircular canals) was carefully dissected. Connective tissues and nerves were removed to clear the round window niche and the capsule was positioned with the round window facing up in a sterile 35 mm dish. A surgical sponge was employed to blot dry the interior of the round window niche, which was then filled with 2 μl of the formulated drug and applied with a small pipette tip. Following 2 h of drug treatment at 37°C with 5% CO2, the tissue was transferred to a 50 ml conical tube containing 10 ml medium (DMEM, 5%FBS, 5% horse serum and ampicillin) and the tube was sparged with 95% O2/5% CO2 for 5–10 min and incubated for 2 days at 37°C, rotating on a roller/rocker (SCILOGEX MX-T6-S Analog Tube Roller) at 15–17 rpm.\nFor whole-mount immunohistochemistry, whole cochleae were fixed (4% PFA) ON at 4°C, then incubated in primary antibodies (72 h, rocking at 4°C), goat anti-GFP polyclonal Ab (AbCam, ab6673) and rabbit anti-Sox2 polyclonal IgG (GenTex, GTX101506) in 4% normal donkey serum. Following extended washes (over 24 h), cochlea were incubated for 24 h in secondary antibodies donkey anti-goat Alexa 488 (Thermo Fisher, A11055) and donkey anti-rabbit Alexa 647 (Thermo Fisher, A31573) and extensively washed. The intact OC were then microdissected from cochleae and mounted on a coverslip for confocal imaging. A LSM 510 Confocal Microscope (Zeiss) utilizing 63X Zeiss Plan-APOCHROMAT DIC oil, 1.4NA and Zen 2009 LSM imaging software was used to optically scan mid-apex regions of OCs. Cellular quantification and image analysis computation were performed with Imaris 8.2.1 software (Bitplane).\nTo assess the permeability of the compounds across the round window membrane, a novel ex vivo model was devised to compare drug entry, after delivery to the exterior of the cochlear capsule, to resemble middle ear application. Specifically, CPD3 application was tested in organotypic culture of the entire otic capsule (Figure 4). CPD3, formulated at two different concentrations (1 and 7.2 mM) in 70% PEG400 or 10% POX338 (POX), was applied at the round window niche. Drug formulations were allowed to absorb briefly into the cochlea prior to the 48 h culture. […] For the POX338 formulation, we further characterized the number of Sox2+ supporting cells in the sensory epithelium. […] Also in this model, we observed a trend for new hair cells to be greater toward the apex than the base in agreement with the results obtained with the OC organotypic culture and indicated GSI exposure was throughout the entire length of the organ of Corti length during the culture period.\nFIGURE 4 Hair cell quantification in whole cochlea culture. (A) Hair cell counts from whole cochea culture with directly applied CPD3 in 70% PEG400 (1 mM or 7.2 mM). Atoh1-GFP positive hair cells in different organ of Corti regions (B, base; MB, mid-base; MA, mid-apex; A, apex) (n = 3 independent experiments). (B) Hair cell counts from whole cochea culture with directly applied CPD3 in 10% POX338 (1 mM;, or 7.2 mM). Atoh1-GFP positive hair cells in different organ of Corti regions (B, base; MB, mid-base; MA, mid-apex; A, apex; n = 3 independent experiments). (C) Immunostained inner ear sensory epithelia following whole cochlea culture with direct application of CPD3 (1 and 7.2 mM; Vehicle, 10% POX338). 3D projections of confocal stacks at mid-base region of organ of Corti, Atoh1-GFP (hair cells, green) and Sox2 (supporting cells, red). (D) Quantification of Atoh1-GFP-positive (green dots) and Sox2-positive cells (red dots) after direct application of CPD3 (1 or 7.2 mM), or vehicle formulated in 10% POX338. (*p < 0.05; ***p < 0.001, one-way ANOVA with multiple comparison; n = 12; 3 independent experiments; all regions-base to apex).", "data": [{"molecule": "COc1ccc2c(c1)N1CCC(C)(C)C1=CC(=O)[C@H]2NC(=O)[C@H](C)NC(=O)CCC(F)(F)F", "note": "[CPD3]", "values": [{"measurement": "Increase in Atoh1+ hair cells above vehicle-only", "setting": "1 mM in 10% POX338", "result": 23.3, "unit": "%"}, {"measurement": "Atoh1+ hair cells", "setting": "1 mM in 10% POX338, 48 h culture", "result": "72 ± 11", "unit": "hair cells/100 μm"}, {"measurement": "Change in Atoh1+ hair cells above vehicle-only", "setting": "1 mM in 70% PEG400", "result": "no change"}, {"measurement": "Atoh1+ hair cells", "setting": "1 mM in 70% PEG400, 48 h culture", "result": "54 ± 7", "unit": "hair cells/100 μm"}, {"measurement": "Increase in Atoh1+ hair cells above vehicle-only", "setting": "7.2 mM in 10% POX338", "result": 54.4, "unit": "%"}, {"measurement": "Atoh1+ hair cells", "setting": "7.2 mM in 10% POX338, 48 h culture", "result": "90 ± 20", "unit": "hair cells/100 μm"}, {"measurement": "Increase in Atoh1+ hair cells above vehicle-only", "setting": "7.2 mM in 70% PEG400", "result": 60.1, "unit": "%"}, {"measurement": "Atoh1+ hair cells", "setting": "7.2 mM in 70% PEG400, 48 h culture", "result": "87 ± 15", "unit": "hair cells/100 μm"}, {"measurement": "Supporting cell (Sox2+) counts", "setting": "10% POX338 formulation, p < 0.001", "result": "significant decrease"}]}]}
